Assay results reported in paper PMC7093416, “Selective USP7 inhibition elicits cancer cell killing through a p53-dependent mechanism” (Scientific Reports, 2020).

Test system: panel of 484 cancer cell lines
Test: PRISM cancer cell line profiling, 5 days
Type: cell-based
Set-up: AUC: unit not given beside the values
Description: Cancer cell line profiling was performed using the Broad’s PRISM platform. Cell treatment and data analysis were performed as described in Yu et al[42]. Raw Luminex signal was converted to AUC values for each cell line as described. The resulting AUC profile for each compound was modeled against DepMap using the limma package in R[71]. Because hotspot mutation analysis was performed against DepMap, TP53 annotations in Fig. 6c,d are directly from DepMap.

Compound: CN1CCN(CCC(=O)Nc2ccc3c(=O)n(CC4(O)CCN(C(=O)[C@@H](CCCNC(=O)c5ccc6c(Cl)c7c(nc6c5)CCCC7)Cc5ccccc5)CC4)cnc3c2)CC1 [XL177A]
- AUC (HCC1438_LUNG): 0.7615
- AUC (HCC1588_LUNG): 1.23
- AUC (HCC1806_BREAST): 0.9812
- AUC (HCC1937_BREAST): 1.015
- AUC (HCC4006_LUNG): 0.9625
- AUC (HCT15_LARGE_INTESTINE): 1.19
- AUC (HCT116_LARGE_INTESTINE): 0.9421
- AUC (HDQP1_BREAST): 0.9973
- AUC (HEC1A_ENDOMETRIUM): 1.131
- AUC (HEC1B_ENDOMETRIUM): 0.9267
- AUC (HEC6_ENDOMETRIUM): 0.9564
- AUC (HEC59_ENDOMETRIUM): 1.149
- AUC (HEC108_ENDOMETRIUM): 0.8058
- AUC (HEC151_ENDOMETRIUM): 0.7769
- AUC (HEC251_ENDOMETRIUM): 0.792
- AUC (HEC265_ENDOMETRIUM): 0.8327
- AUC (HEP3B217_LIVER): 1.13
- AUC (HEYA8_OVARY): 0.9929
- AUC (HGC27_STOMACH): 1.014
- AUC (HLF_LIVER): 1.111
- AUC (HMC18_BREAST): 0.9153
- AUC (HOS_BONE): 1.0422
- AUC (HPAC_PANCREAS): 1.477
- AUC (HS294T_SKIN): 0.8762
- AUC (HS618T_LUNG): 0.9543
- AUC (HS729_SOFT_TISSUE): 0.9806
- AUC (HS766T_PANCREAS): 0.877
- AUC (HS852T_SKIN): 1.359
- AUC (HS939T_SKIN): 1.069
- AUC (HS944T_SKIN): 1.047
- AUC (HSC2_UPPER_AERODIGESTIVE_TRACT): 0.968
- AUC (HSC3_UPPER_AERODIGESTIVE_TRACT): 0.8381
- AUC (HT29_LARGE_INTESTINE): 1.3
- AUC (HT55_LARGE_INTESTINE): 1.168
- AUC (HT144_SKIN): 1.076
- AUC (HT1080_SOFT_TISSUE): 1.011
- AUC (HT1376_URINARY_TRACT): 1.127
- AUC (HUCCT1_BILIARY_TRACT): 0.9724
- AUC (HUH6_LIVER): 0.8768
- AUC (HUH7_LIVER): 1.027
- AUC (HUH28_BILIARY_TRACT): 1.165
- AUC (HUPT3_PANCREAS): 1.003
- AUC (IALM_LUNG): 0.9313
- AUC (IGR1_SKIN): 0.998
- AUC (IGR37_SKIN): 0.9905
- AUC (IGROV1_OVARY): 0.7266
- AUC (IM95_STOMACH): 0.6846
- AUC (IPC298_SKIN): 0.897
- AUC (ISHIKAWAHERAKLIO02ER_ENDOMETRIUM): 1.0984
- AUC (ISTMES1_PLEURA): 0.9912
- AUC (ISTMES2_PLEURA): 1.073
- AUC (J82_URINARY_TRACT): 1.012
- AUC (JHH1_LIVER): 0.7875
- AUC (JHH4_LIVER): 1.303
- AUC (JHH5_LIVER): 1.313
- AUC (JHH6_LIVER): 1.146
- AUC (JHH7_LIVER): 1.089
- AUC (JHOC5_OVARY): 0.9299
- AUC (JHOM1_OVARY): 1.1
- AUC (JHOS2_OVARY): 1.084
- AUC (JHUEM2_ENDOMETRIUM): 0.6526
- AUC (JIMT1_BREAST): 0.9668
- AUC (JMSU1_URINARY_TRACT): 1.405
- AUC (K029AX_SKIN): 0.9501
- AUC (KALS1_CENTRAL_NERVOUS_SYSTEM): 0.9126
- AUC (KELLY_AUTONOMIC_GANGLIA): 1.086
- AUC (KMBC2_URINARY_TRACT): 0.7761
- AUC (KMRC1_KIDNEY): 1.1591
- AUC (KMRC3_KIDNEY): 1.033
- AUC (KMRC20_KIDNEY): 1.2
- AUC (KNS42_CENTRAL_NERVOUS_SYSTEM): 1.183
- AUC (KNS60_CENTRAL_NERVOUS_SYSTEM): 1.16
- AUC (KNS62_LUNG): 0.8251
- AUC (KNS81_CENTRAL_NERVOUS_SYSTEM): 0.9475
- AUC (KP2_PANCREAS): 1.066
- AUC (KP3_PANCREAS): 1.01
- AUC (KP4_PANCREAS): 0.8954
- AUC (KPL1_BREAST): 0.9211
- AUC (KU1919_URINARY_TRACT): 0.8697
- AUC (KYSE30_OESOPHAGUS): 0.8748
- AUC (KYSE70_OESOPHAGUS): 0.8646
- AUC (KYSE140_OESOPHAGUS): 1.147
- AUC (KYSE150_OESOPHAGUS): 0.9935
- AUC (KYSE180_OESOPHAGUS): 1.01
- AUC (KYSE270_OESOPHAGUS): 0.9741
- AUC (KYSE410_OESOPHAGUS): 1.031
- AUC (KYSE510_OESOPHAGUS): 0.9351
- AUC (KYSE520_OESOPHAGUS): 0.8676
- AUC (L33_PANCREAS): 1.236
- AUC (LC1SQSF_LUNG): 1.124
- AUC (LCLC103H_LUNG): 1.104
- AUC (LI7_LIVER): 1.1644
- AUC (LK2_LUNG): 1.455
- AUC (LMSU_STOMACH): 0.9257
- AUC (LN18_CENTRAL_NERVOUS_SYSTEM): 0.8921
- AUC (LN229_CENTRAL_NERVOUS_SYSTEM): 1.185
- AUC (LNCAPCLONEFGC_PROSTATE): 0.7244
- AUC (LOUNH91_LUNG): 1.175
- AUC (LOVO_LARGE_INTESTINE): 1.153
- AUC (LOXIMVI_SKIN): 0.9286
- AUC (LS180_LARGE_INTESTINE): 0.8962
- AUC (LS411N_LARGE_INTESTINE): 1.328
- AUC (LS513_LARGE_INTESTINE): 1.158
- AUC (LS1034_LARGE_INTESTINE): 1.385
- AUC (LU99_LUNG): 0.9975
- AUC (LUDLU1_LUNG): 1.119
- AUC (LXF289_LUNG): 0.9272
- AUC (MALME3M_SKIN): 0.9568
- AUC (MCAS_OVARY): 0.987
- AUC (MCF7_BREAST): 0.9375
- AUC (MDAMB175VII_BREAST): 1.118
- AUC (MDAMB231_BREAST): 0.9911
- AUC (MDAMB435S_SKIN): 0.9274
- AUC (MDAMB436_BREAST): 0.9312
- AUC (MDAMB468_BREAST): 0.902
- AUC (MELHO_SKIN): 0.9951
- AUC (MELJUSO_SKIN): 0.9827
- AUC (MESSA_SOFT_TISSUE): 0.5444
- AUC (MEWO_SKIN): 0.9674
- AUC (MFE280_ENDOMETRIUM): 1.202
- AUC (MFE296_ENDOMETRIUM): 1.106
- AUC (MFE319_ENDOMETRIUM): 1.097
